EP2540163A1, “Nematocide N-cyclopropyl-sulfonylamide derivatives” (Bayer CropScience AG, priority 2011, dated 2013)

Assay: logP by HPLC on reversed-phase column (C 18), EEC Directive 79/831 Annex V.A8, Method A (0.1% aqueous phosphoric acid / acetonitrile, 43°C)
Type: physicochemical
Settings: c18 reversed-phase hplc; LogP method A: HPLC reversed-phase C 18, 43°C, 0.1% aqueous phosphoric acid / acetonitrile
Description: (§1) Calibration was carried out using unbranched alkan-2-ones (having 3 to 16 carbon atoms) with known logP values (determination of the logP values by the retention times using linear interpolation between two successive alkanones).

In order of rising chromatographic logP:
1. COc1nn(C)cc1C(=O)N(C1CC1)S(=O)(=O)c1ccccc1Cl [compound 211]  1.94
2. Cc1nn(C)c(C)c1C(=O)N(C1CC1)S(=O)(=O)c1ccccc1Cl [compound 215]  2.17
3. Cn1cc(C(=O)N(C2CC2)S(=O)(=O)c2ccccc2Cl)c(I)n1 [compound 214]  2.31
4. Cc1nn(C)c(F)c1C(=O)N(C1CC1)S(=O)(=O)c1ccccc1Cl [compound 180]  2.34
5. Cc1nn(C)c(F)c1C(=O)N(C1CC1)S(=O)(=O)c1c(Cl)cccc1Cl [compound 218]  2.52
6. Cc1n[nH]c(C)c1C(=O)N(C1CC1)S(=O)(=O)c1ccc(C(F)(F)F)cc1 [compound 402]  2.58
7. Cn1cc(C(=O)N(C2CC2)S(=O)(=O)c2ccccc2Cl)c(C(F)(F)F)n1 [compound 200]  2.71
8. Cc1occc1C(=O)N(C1CC1)S(=O)(=O)c1ccccc1Cl [compound 4]  2.77
9. Cc1nn(C)c(F)c1C(=O)N(C1CC1)S(=O)(=O)c1cccc(Cl)c1Cl [compound 210]  2.77
10. Cc1ncc(C(=O)N(C2CC2)S(=O)(=O)c2cccc(Cl)c2)s1 [compound 60]  2.8
11. Cc1nn(C)c(F)c1C(=O)N(C1CC1)S(=O)(=O)c1cccc(Cl)c1 [compound 176]  2.82
12. Cc1ncc(C(=O)N(C2CC2)S(=O)(=O)c2ccc(Cl)cc2Cl)s1 [compound 64]  2.91
13. Cc1nn(C)c(F)c1C(=O)N(C1CC1)S(=O)(=O)c1ccc(Cl)cc1Cl [compound 186]  2.94
14. Cc1c(C(=O)N(C2CC2)S(=O)(=O)c2ccccc2Cl)cnn1-c1ccccc1 [compound 201]  2.97
15. Cc1nc(C(=O)N(C2CC2)S(=O)(=O)c2ccc(Cl)cc2Cl)cs1 [compound 71]  3.03
16. Cc1ccsc1C(=O)N(C1CC1)S(=O)(=O)c1ccccc1Cl [compound 14]  3.12
17. Cc1nn(C)c(F)c1C(=O)N(C1CC1)S(=O)(=O)c1ccc(C(F)(F)F)cc1Cl [compound 213]  3.19
18. Cc1nc(C(F)(F)F)c(C(=O)N(C2CC2)S(=O)(=O)c2ccccc2Cl)s1 [compound 59]  3.2
19. Cc1occc1C(=O)N(C1CC1)S(=O)(=O)c1cccc(Cl)c1 [compound 3]  3.27
20. Cn1nc(C(F)(F)F)c(C(=O)N(C2CC2)S(=O)(=O)c2ccccc2Cl)c1Cl [compound 208]  3.27
21. Cc1ncc(C(=O)N(C2CC2)S(=O)(=O)c2ccc(Cl)c(Cl)c2)s1 [compound 63]  3.33
22. Cc1nn(C)c(F)c1C(=O)N(C1CC1)S(=O)(=O)c1ccc(Cl)c(Cl)c1 [compound 178]  3.35
23. Cc1nn(C)c(F)c1C(=O)N(C1CC1)S(=O)(=O)c1ccc(Cl)c(Cl)c1Cl [compound 212]  3.35
24. CCOC(=O)c1[nH]c(C)c(C(=O)N(C2CC2)S(=O)(=O)c2cccc(Cl)c2)c1C [compound 29]  3.46
25. Cc1ncc(C(=O)N(C2CC2)S(=O)(=O)c2ccc(Cl)c(C(F)(F)F)c2)s1 [compound 62]  3.46
26. Cc1nc(C(=O)N(C2CC2)S(=O)(=O)c2ccc(Cl)c(Cl)c2)cs1 [compound 70]  3.46
27. O=C(c1cc(Br)c(Br)o1)N(C1CC1)S(=O)(=O)c1ccccc1Cl [compound 1]  3.58
28. CCOC(=O)c1[nH]c(C)c(C(=O)N(C2CC2)S(=O)(=O)c2ccc(Cl)cc2Cl)c1C [compound 32]  3.63
29. Cc1ccsc1C(=O)N(C1CC1)S(=O)(=O)c1cccc(Cl)c1 [compound 13]  3.64
30. Cc1nn(C)c(Oc2cccc(Cl)c2)c1C(=O)N(C1CC1)S(=O)(=O)c1cccc(Cl)c1 [compound 399]  3.94
31. O=C(c1cc(Br)c(Br)s1)N(C1CC1)S(=O)(=O)c1ccccc1Cl [compound 15]  4.07
32. CCOC(=O)c1[nH]c(C)c(C(=O)N(C2CC2)S(=O)(=O)c2ccc(Cl)c(C(F)(F)F)c2)c1C [compound 31]  4.08
33. Cc1nn(C)c(Oc2cccc(Cl)c2)c1C(=O)N(C1CC1)S(=O)(=O)c1ccc(Cl)c(Cl)c1 [compound 405]  4.46
34. Cc1nn(C)c(Oc2cccc(Cl)c2)c1C(=O)N(C1CC1)S(=O)(=O)c1ccc(Cl)c(C(F)(F)F)c1 [compound 404]  4.56

Assay: logP by HPLC on reversed-phase column (C 18), EEC Directive 79/831 Annex V.A8, Method B (0.1% aqueous formic acid / acetonitrile, 40°C)
Type: physicochemical
Settings: LogP method B: HPLC reversed-phase C 18, 40°C, 0.1% aqueous formic acid / acetonitrile
Description: as §1

In the case of `CCCCCc1ccc(Oc2ccc(S(=O)(=O)N(C(=O)c3cn(C)nc3OCC)C3CC3)c(Br)c2)cc1` [compound 561], the LogP is reported as 5,8.

Same assay, conditions: c18 reversed-phase hplc; LogP method B: HPLC reversed-phase C 18, 40°C, 0.1% aqueous formic acid / acetonitrile

In order of falling chromatographic logP:
1. CCCCCc1ccc(Oc2ccc(S(=O)(=O)N(C(=O)c3cn(C)nc3OCC)C3CC3)c(Cl)c2)cc1 [compound 560]  5.6
2. CCOc1nn(C)cc1C(=O)N(C1CC1)S(=O)(=O)c1ccc(Oc2cc(Cl)cc(Cl)c2)c(Cl)c1 [compound 559]  5
3. CCOc1nn(C)cc1C(=O)N(C1CC1)S(=O)(=O)c1ccc(Oc2ccc(Br)c(Cl)c2)c(Cl)c1 [compound 558]  4.9
4. CCOc1nn(C)cc1C(=O)N(C1CC1)S(=O)(=O)c1ccc(Oc2ccc(Cl)c(C(F)(F)F)c2)c(Cl)c1 [compound 556]  4.8
5. CCOc1nn(C)cc1C(=O)N(C1CC1)S(=O)(=O)c1ccc(Oc2ccc(Cl)cc2Cl)c(Cl)c1 [compound 555]  4.7
6. CCOc1nn(C)cc1C(=O)N(C1CC1)S(=O)(=O)c1ccc(Oc2cccc(Br)c2)c(Cl)c1 [compound 551]  4.5
7. CCOc1nn(C)cc1C(=O)N(C1CC1)S(=O)(=O)c1ccc(Oc2ccc(Br)cc2)c(Cl)c1 [compound 552]  4.5
8. CCOc1nn(C)cc1C(=O)N(C1CC1)S(=O)(=O)c1ccc(Oc2cccc(OC(F)(F)F)c2)c(Cl)c1 [compound 554]  4.5
9. CCOc1nn(C)cc1C(=O)N(C1CC1)S(=O)(=O)c1ccc(Oc2ccc(F)c(Cl)c2)c(Cl)c1 [compound 548]  4.4
10. CCOc1nn(C)cc1C(=O)N(C1CC1)S(=O)(=O)c1ccc(Oc2cccc(C(F)(F)F)c2)c(Cl)c1 [compound 549]  4.4
11. CCOc1nn(C)cc1C(=O)N(C1CC1)S(=O)(=O)c1ccc(Oc2ccc(C(F)(F)F)cc2)c(Cl)c1 [compound 550]  4.4
12. CCOc1nn(C)cc1C(=O)N(C1CC1)S(=O)(=O)c1ccc(Oc2ccc(C)cc2)c(Cl)c1 [compound 542]  4.3
13. CCOc1nn(C)cc1C(=O)N(C1CC1)S(=O)(=O)c1ccc(Oc2ccc(Cl)cc2Cl)cc1Cl [compound 543]  4.3
14. CCOc1nn(C)cc1C(=O)N(C1CC1)S(=O)(=O)c1ccc(Oc2ccc(Br)c(Cl)c2)cc1Cl [compound 544]  4.3
15. CCOc1nn(C)cc1C(=O)N(C1CC1)S(=O)(=O)c1ccc(Oc2ccc(Cl)cc2)c(Cl)c1 [compound 545]  4.3
16. CCOc1nn(C)cc1C(=O)N(C1CC1)S(=O)(=O)c1ccc(Oc2cccc(Cl)c2)c(Cl)c1 [compound 546]  4.3
17. CCOc1nn(C)cc1C(=O)N(C1CC1)S(=O)(=O)c1ccc(Oc2cccc(C(F)(F)F)c2F)c(Cl)c1 [compound 547]  4.3
18. CCOc1nn(C)cc1C(=O)N(C1CC1)S(=O)(=O)c1ccc(Oc2ccccc2Cl)c(Cl)c1 [compound 537]  4.1
19. CCOc1nn(C)cc1C(=O)N(C1CC1)S(=O)(=O)c1ccc(Oc2ccc(C(F)(F)F)cc2)cc1Cl [compound 538]  4.1
20. CCOc1nn(C)cc1C(=O)N(C1CC1)S(=O)(=O)c1ccc(Oc2cccc(N(C)C)c2)c(Cl)c1 [compound 539]  4.1
21. CCOc1nn(C)cc1C(=O)N(C1CC1)S(=O)(=O)c1ccc(Oc2ccc(Cl)cc2)cc1Cl [compound 535]  4
22. CCOc1nn(C)cc1C(=O)N(C1CC1)S(=O)(=O)c1ccc(Oc2ccc(F)c(Cl)c2)cc1Cl [compound 536]  4
23. Cc1nn(C)c(C(=O)N(C2CC2)S(=O)(=O)c2cccc(Cl)c2Cl)c1Cl [compound 586]  3.7
24. O=C(c1cccnc1Cl)N(C1CC1)S(=O)(=O)c1ccc(Oc2ccccc2)cc1 [compound 646]  3.7
25. O=C(c1cccnc1Cl)N(C1CC1)S(=O)(=O)c1ccc(Cl)c(Cl)c1Cl [compound 647]  3.7
26. Cc1nocc1C(=O)N(C1CC1)S(=O)(=O)c1ccc(Cl)c(Cl)c1Cl [compound 600]  3.6
27. Cc1cnn(C)c1C(=O)N(C1CC1)S(=O)(=O)c1ccc(Cl)c(Cl)c1Cl [compound 659]  3.6
28. Cn1ncc(I)c1C(=O)N(C1CC1)S(=O)(=O)c1ccc(Cl)c(Cl)c1Cl [compound 663]  3.4
29. O=C(c1cccnc1Cl)N(C1CC1)S(=O)(=O)c1cccc(Cl)c1Cl [compound 645]  3.2
30. Cc1cnn(C)c1C(=O)N(C1CC1)S(=O)(=O)c1cccc(Cl)c1Cl [compound 658]  3.1
31. Cc1nocc1C(=O)N(C1CC1)S(=O)(=O)c1cccc(Cl)c1Cl [compound 599]  3
32. Cn1ncc(I)c1C(=O)N(C1CC1)S(=O)(=O)c1cccc(Cl)c1Cl [compound 662]  2.8
33. Cc1oncc1C(=O)N(C1CC1)S(=O)(=O)c1ccc(Cl)c(Cl)c1Cl [compound 604]  2.6
34. O=C(c1cccnc1F)N(C1CC1)S(=O)(=O)c1cccc(Cl)c1Cl [compound 649]  2.4
35. Cc1oncc1C(=O)N(C1CC1)S(=O)(=O)c1cccc(Cl)c1Cl [compound 603]  2.2

Same assay, conditions: c18 reversed-phase hplc; LogP method B: HPLC, 40°C, 0.1% aqueous formic acid and acetonitrile, gradient 10% to 90% acetonitrile

In order of falling chromatographic logP:
1. Cc1nn(C)c(F)c1C(=O)N(C1(c2ccccc2)CC1)S(=O)(=O)c1cccc(Cl)c1Cl [compound 670]  4.1
2. COC(=O)C1(N(C(=O)c2c(C(F)(F)F)nn(C)c2F)S(=O)(=O)c2ccc(Cl)c(Cl)c2Cl)CC1 [compound 667]  4.04
